Measurements taken from patent publication US9554990B2, “Cholecystokinin secretion-promoting composition” (J-OIL MILLS, INC., priority 2012, dated 2017).

Legend:
[1] = tested on: Mouse intestinal CCK-producing cell line STC-1; test: Confirmation test of CCK secretion-stimulating activity (CCK in supernatant, enzyme immunoassay); assay type: cell-based; parameters: key to CCK secretion-promoting activity Significant difference from vehicle Group 3 / CCK secretion-promoting activity Significant difference from vehicle Group 4 / CCK secretion-promoting activity Significant difference from vehicle Group 1 / CCK secretion-promoting activity Significant difference from vehicle Group 5: *: A significant difference (P < 0.05) was found; —: No significant difference was found; details: for CCK secretion-promoting activity Significant difference from vehicle Group 3: experimental group 3; for CCK secretion-stimulating activity (in words): single test material; for CCK secretion-promoting activity Significant difference from vehicle Group 1: experimental group 1; for CCK secretion-promoting activity Significant difference from vehicle Group 4: experimental group 4
Protocol: As a condition for maximizing the secretion amount of CCK in a cell test system, 70 mM KCl (positive control) causing hormone release by depolarization was prepared.
Since the number of materials that can be tested at once is restricted, the test materials were divided into five groups as shown in Table 1. In order to solve the discontinuity between experimental groups, every group included trans,trans-2,4-decadienal. Each test material was tested three times, and the average value of the results was calculated.
The test materials were each dissolved in ethanol, and each solution was diluted with Hepes buffer (140 mM NaCl, 4.5 mM KCl, 20 mM Hepes, 1.2 mM CaCl2, 1.2 mM MgCl2, and 10 mM D-glucose, pH 7.4) to give a 0.1 vol % ethanol solution, which was used as the evaluation solution.
Mouse intestinal CCK-producing cell line STC-1 was cultured in a 48-well plate for two to three days until subconfluent in a Dulbecco's modified Eagle's medium containing 10% bovine fetal serum at 37° C. in the presence of 5% CO2. After the wells were washed with Hepes buffer, 100 μL of the evaluation solution containing 100 μM of a test material was added to a well, followed by incubation at 37° C. for 60 minutes. The supernatant was collected and was centrifuged (800×g, 5 min, 4° C.) to precipitate the exfoliated cells. The resulting supernatant (80 μL) was collected and was cryopreserved. The concentration of CCK in the supernatant was measured with a commercially available enzyme immunoassay kit (manufactured by Phoenix Pharmaceuticals, Inc.).
In order to investigate the change in the secretion amount of CCK by addition of a test material to the cells in a general condition, a value obtained by subtracting the measured value of the vehicle from the measured value of a sample was used as the true value, and the score of the CCK secretion-stimulating activity was determined by dividing the true value by the value of 70 mM KCl as a control. The variance was analyzed for each experimental group. The difference in variance between an experimental group and the vehicle was examined for determining whether there was a significant difference (P<0.05). […]

[2] = swallowing; cited from earlier work
[3] = Table 2B, 100 μM test material, 60 minutes, STC-1, (sample minus vehicle) divided by value of 70 mM KCl control
[4] = Table 2A, 100 μM test material, 60 minutes, STC-1, (sample minus vehicle) divided by value of 70 mM KCl control
[5] = Table 3, single ingredient (100 μM) or control, relative to 70 mM KCl

With `CCCCCCCC=O` [compound 2, octanal] the “CCK secretion-promoting activity Score” value [1, 3] was −0.004 and the “CCK secretion-promoting activity Significant difference from vehicle Group 3” value ([1]; Table 2B, 100 μM) was “—”.
In the case of `CCCCCCCCC/C=C/C=O` [compound 10, trans-2-dodecenal], the “CCK secretion-promoting activity Score” value [1, 3] is reported as −0.319 and the “CCK secretion-promoting activity Significant difference from vehicle Group 3” value ([1]; Table 2B, 100 μM) is reported as “—”.
In the case of `CCCCC/C=C/CCC=O` [Example 10, trans-4-decenal], the “CCK secretion-promoting activity Score” value [1, 4] is reported as 0.441.
With `CCCCCCCCO` [compound 18, 1-octanol] the “CCK secretion-promoting activity Score” value [1, 3] was −0.134.
For `C=CC=O` [propenal], the “GHS class of acute toxicity” value [2] is given as “class 2” and the “CCK secretion-stimulating activity (in words)” value ([1]; STC-1) is given as “has a CCK-secreting activity”.
With `CCCC/C=C/C=O` [Example 7, trans-2-heptenal] the “CCK secretion-promoting activity Score” value [1, 4] was 0.624 and the “CCK secretion-promoting activity Significant difference from vehicle Group 1” value ([1]; Table 2A, 100 μM) was “* (A significant difference (P < 0.05) was found)”.
With `CCCCCCCC/C=C/C=O` [compound 9, trans-2-undecenal] the “CCK secretion-promoting activity Score” value [1, 3] was −0.137 and the “CCK secretion-promoting activity Significant difference from vehicle Group 3” value ([1]; Table 2B, 100 μM) was “—”.
In the case of `CCCCC/C=C\CCC=O` [Example 11, cis-4-decenal], the “CCK secretion-promoting activity Score” value [1, 4] is reported as 0.377 and the “CCK secretion-promoting activity Significant difference from vehicle Group 4” value ([1]; Table 2A, 100 μM) is reported as “—”.
In the case of `CCCCCC/C=C/C=O` [Example 9, trans-2-nonenal], the “CCK secretion-promoting activity Score” value [1, 4] is reported as 0.491 and the “CCK secretion-promoting activity Significant difference from vehicle Group 3” value ([1]; Table 2A, 100 μM) is reported as “—”.
In the case of `CCCC=O.CCCC=O` [Comparative Example 1, butanal (butyraldehyde)], the “CCK secretion-promoting activity Score” value [1, 3] is reported as 0.017 and the “CCK secretion-promoting activity Significant difference from vehicle Group 1” value ([1]; Table 2B, 100 μM) is reported as “—”.
With `CCCCCCCCCCO` [compound 19, n-decyl alcohol] the “CCK secretion-promoting activity Score” value [1, 3] was 0.070.
For `CCCCCCCCCCCCO` [compound 20, dodecyl alcohol], the “CCK secretion-promoting activity Score” value [1, 3] was −0.304.
For `[Cl-].[K+]` [70 mM KCl, KCl], the “CCK secretion-promoting activity Score” value [1, 4] was 1, the “CCK secretion-promoting activity Score” value [1, 3] was 1 and the “CCK secretion-promoting activity Score” value [1, 5] was 1.
For `C=CCCCCCCCCC=O` [compound 14, trans-10-undecenal], the “CCK secretion-promoting activity Score” value [1, 3] was −0.458 and the “CCK secretion-promoting activity Significant difference from vehicle Group 3” value ([1]; Table 2B, 100 μM) was “—”.
For `CCCC/C=C/C=C/C=O` [Example 3, trans,trans-2,4-nonadienal], the “CCK secretion-promoting activity Score” value [1, 4] was 0.975 and the “CCK secretion-promoting activity Significant difference from vehicle Group 1” value ([1]; Table 2A, 100 μM) was “* (A significant difference (P < 0.05) was found)”.
In the case of `CCCCCCCC(=O)O` [compound 24, n-octanoic acid], the “CCK secretion-promoting activity Score” value [1, 3] is reported as −0.140.
For `CCCCCC/C=C/C(C)=O` [compound 22, trans-3-decen-2-one], the “CCK secretion-promoting activity Score” value [1, 3] was 0.169.
In the case of `CC/C=C\CCCCCC=O` [compound 13, cis-7-decenal], the “CCK secretion-promoting activity Score” value [1, 3] is reported as 0.274.
For `CCCCC/C=C/C(=O)O` [compound 23, trans-2-octenoic acid], the “CCK secretion-promoting activity Score” value [1, 3] was 0.146 and the “CCK secretion-promoting activity Significant difference from vehicle Group 4” value ([1]; Table 2B, 100 μM) was “—”.
With `CC/C=C\CCCCC=O` [compound 12, cis-6-nonenal] the “CCK secretion-promoting activity Score” value [1, 3] was −0.648 and the “CCK secretion-promoting activity Significant difference from vehicle Group 3” value ([1]; Table 2B, 100 μM) was “—”.
For `CC/C=C\CCC=O` [Comparative Example 11, cis-4-heptenal], the “CCK secretion-promoting activity Score” value [1, 3] was −0.001.
For trans,trans-1,9-decadiene [compound 30], the “CCK secretion-promoting activity Score” value [1, 3] was −0.211 and the “CCK secretion-promoting activity Significant difference from vehicle Group 5” value ([1]; Table 2B, experimental group 5, 100 μM) was “—”.
For `CCCCCCCCCCCCCO` [compound 21, n-tridecyl alcohol], the “CCK secretion-promoting activity Score” value [1, 3] was −0.225.
In the case of `CCCCCCCCCCCCC=O` [compound 7, tridecanal], the “CCK secretion-promoting activity Score” value [1, 3] is reported as 0.049.
With `CC/C=C/C=C/C=O` [Example 2, trans,trans-2,4-heptadienal] the “CCK secretion-promoting activity Score” value [1, 4] was 0.885 and the “CCK secretion-promoting activity Significant difference from vehicle Group 1” value ([1]; Table 2A, 100 μM) was “* (A significant difference (P < 0.05) was found)”.
With `CCCCC/C=C\CCCO` [compound 17, cis-4-decen-1-ol] the “CCK secretion-promoting activity Score” value [1, 3] was −0.171 and the “CCK secretion-promoting activity Significant difference from vehicle Group 4” value ([1]; Table 2B, 100 μM) was “—”.
In the case of `CCCCCCCCCC(=O)O` [compound 25, decanoic acid], the “CCK secretion-promoting activity Score” value [1, 3] is reported as −0.207.
For `CCCCCCCCC=O` [compound 3, nonanal], the “CCK secretion-promoting activity Score” value [1, 3] was −0.003 and the “CCK secretion-promoting activity Significant difference from vehicle Group 1” value ([1]; Table 2B, 100 μM) was “—”.
With `CCCCCCCCCCCC=O` [compound 6, dodecanal] the “CCK secretion-promoting activity Score” value [1, 3] was −0.093.
In the case of `C/C=C/C=C/C=O` [Example 1, trans,trans-2,4-hexadienal], the “CCK secretion-promoting activity Score” value [1, 4] is reported as 0.840 and the “CCK secretion-promoting activity Significant difference from vehicle Group 1” value ([1]; Table 2A, 100 μM) is reported as “* (A significant difference (P < 0.05) was found)”.
For `C/C=C\CCCCCCC` [compound 29, cis-2-decene], the “CCK secretion-promoting activity Score” value [1, 3] was −0.208.
For `CCCCCCCCCCC=O` [compound 5, undecanal], the “CCK secretion-promoting activity Score” value [1, 3] was 0.189.
With `CCCCCCC/C=C/C=C/C=O` [Example 5, trans,trans-2,4-dodecadienal] the “CCK secretion-promoting activity Score” value [1, 4] was 0.720.
With `CCCCCCCCCCCCC(=O)O` [compound 27, n-tridecanoic acid] the “CCK secretion-promoting activity Score” value [1, 3] was −0.234.
For `C/C=C/C=O.C/C=C/C=O` [Example 6, trans-2-butenal (crotonaldehyde)], the “CCK secretion-promoting activity Score” value [1, 4] was 0.644 and the “CCK secretion-promoting activity Significant difference from vehicle Group 1” value ([1]; Table 2A, 100 μM) was “* (A significant difference (P < 0.05) was found)”.
For `C=CCO` [compound 15, 2-propen-1-ol], the “CCK secretion-promoting activity Score” value [1, 3] was 0.557 and the “CCK secretion-promoting activity Significant difference from vehicle Group 4” value ([1]; Table 2B, 100 μM) was “—”.
In the case of `CCCCC/C=C/C=O` [Example 8, trans-2-octenal], the “CCK secretion-promoting activity Score” value [1, 4] is reported as 0.698 and the “CCK secretion-promoting activity Significant difference from vehicle Group 4” value ([1]; Table 2A, 100 μM) is reported as “* (A significant difference (P < 0.05) was found)”.
In the case of `C=CC(=O)O` [Example 12, acrylic acid], the “CCK secretion-promoting activity Score” value [1, 4] is reported as 0.957 and the “CCK secretion-promoting activity Significant difference from vehicle Group 4” value ([1]; Table 2A, 100 μM) is reported as “* (A significant difference (P < 0.05) was found)”.
With `CCCCC/C=C/CO` [compound 16, trans-2-octen-1-ol] the “CCK secretion-promoting activity Score” value [1, 3] was 0.321 and the “CCK secretion-promoting activity Significant difference from vehicle Group 4” value ([1]; Table 2B, 100 μM) was “—”.
With `CCCCCCCCCC` [compound 28, decane] the “CCK secretion-promoting activity Score” value [1, 3] was −0.224.
In the case of `CCCCCCCCCCCC(=O)O` [compound 26, lauric acid], the “CCK secretion-promoting activity Score” value [1, 3] is reported as −0.225.
With `CCCCCCC/C=C/C=O` [compound 8, trans-2-decenal] the “CCK secretion-promoting activity Score” value [1, 3] was 0.046.
For `CCCCC/C=C/C=C/C=O` [Example 4, trans,trans-2,4-decadienal], the “CCK secretion-promoting activity Score” value [1, 4] was 1.088, the “CCK secretion-promoting activity Significant difference from vehicle Group 1” value ([1]; Table 2A, 100 μM) was “* (A significant difference (P < 0.05) was found)” and the “CCK secretion-promoting activity Significant difference from vehicle Group 3” value ([1]; Table 2A, 100 μM) was “* (A significant difference (P < 0.05) was found)”. The “CCK secretion-promoting activity Significant difference from vehicle Group 4” value ([1]; Table 2A, 100 μM) was “* (A significant difference (P < 0.05) was found)”, the “CCK secretion-promoting activity Significant difference from vehicle” value ([1]; Table 3, single ingredient (100 μM)) was “* (A significant difference (P < 0.05) was found)” and the “CCK secretion-promoting activity Score” value [1, 5] was 1.088. For the same compound, the “CCK secretion-stimulating activity (in words)” value ([1]; STC-1) was “the highest”.
In the case of `CCCCCCCCCC=O` [compound 4, decanal], the “CCK secretion-promoting activity Score” value [1, 3] is reported as 0.042.
